Consider 7 molecules from patent US20040191913A1, “Method of evaluation of antioxidation ability by measuring redox balance in vivo” (priority 2002, published 2004).

Test [1] can be described thus: Radical removability by magnetic spin resonator (attenuation of the DMPO-OOL signal). The class given is biochemical. The settings on record: 10 mM DMPO; for IC50 / 50% Inhibition Concentration: DMPO-OOL signal intensity, 1 minute after start of reaction; for IC50: read-out: 50% Inhibition Concentration. The protocol:
The antioxidation index is obtained by indexing the radical removability, R that is determined by the use of a magnetic spin resonator in the manner mentioned below, within a range of from 1 to 10points. The determination with a magnetic spin resonator is effected as follows: The DMPO-OOL radical resulting from trapping of a butylhydroperoxide radical by a spin trapping agent, 5,5-dimethyl-1-pyrroline-N-oxide (DMPO) is quantitatively determined by the use of a magnetic spin resonator, and a serum sample is added to the system to determine the degree of signal intensity attenuation in the system. […] Radical Removability R=[DMPO]/50% Inhibition Concentration.
Preferably, the determination with a magnetic spin resonator is effected as follows: 100 mM butylhydroperoxide, 50 μg/ml methemoglobin, 10 mM DMPO and 0.1 mM diethylenetriamine-pentaacetic acid are reacted in 10 mM phosphate buffer. One minute after the start of the reaction, the DMPO-OOL signal intensity is measured by the use of a magnetic spin resonator.

The subject of test [2] is Leptin receptor-defective, natural diabetic db/db mice. In words: Animal test: 0.02% astaxanthin feed in diabetic db/db mice. The class given is in vivo. An excerpt:
The quantitative determination of 8-OHdG is effected through enzyme immunoassay using a monoclonal antibody.
Leptin receptor-defective, natural diabetic db/db mice (animal model similar to human type-II diabetes) were used in the test. […] A control group of leptin receptor-defective, natural diabetic db/db mice was not given astaxanthin.

Regarding `O=C1O[C@H]([C@@H](O)CO)C(O)=C1O` [Ascorbic acid], in test [1], the “R (Radical Removability = [DMPO]/50% Inhibition Concentration)” value amounted to 227 and the IC50 was 44 µM.

Take `CC1=C(/C=C/C(C)=C/C=C/C(C)=C/C=C/C=C(C)/C=C/C=C(C)/C=C/C2=C(C)C(=O)[C@@H](O)CC2(C)C)C(C)(C)C[C@H](O)C1=O` [Astaxanthin, astaxanthin]: in test [2] (3 months), the “8-OHdG discharge in urine (in words)” value is recorded as “significantly inhibits” and the “development of diabetic nephropathy (in words)” value is “significantly retards”. Moreover, the “8-OHdG in Urine” value in test [2] (fed for 3 months, enzyme immunoassay, p < 0.05 vs control group) amounted to 135.6 ± 41.1 ng/day. The “Albumin in Urine” value in test [2] (fed for 3 months, p < 0.05 vs control group) was 68.6 ± 13.4 µg/day.

Take `N[C@@H](CCC(=O)N[C@@H](CS)C(=O)NCC(=O)O)C(=O)O` [Glutathione]: in test [1], the “R (Radical Removability = [DMPO]/50% Inhibition Concentration)” value is given as 24 and the IC50 was 410 µM.

Take `O=c1[nH]c(=O)c2[nH]c(=O)[nH]c2[nH]1` [Uric acid]: in test [1], the “R (Radical Removability = [DMPO]/50% Inhibition Concentration)” value was determined as 28 and the IC50 is 360 µM.

Consider `Cc1c(C)c2c(c(C)c1O)CC[C@@](C)(CCC[C@H](C)CCC[C@H](C)CCCC(C)C)O2` [α-Tocopherol], for which, in test [1], the “R (Radical Removability = [DMPO]/50% Inhibition Concentration)” value came to 14 and the IC50 came to 700 µM.

For the molecule `CC1=C(/C=C/C(C)=C/C=C/C(C)=C/C=C/C=C(C)/C=C/C=C(C)/C=C/C2=C(C)CCCC2(C)C)C(C)(C)CCC1` [β-Carotene], the “50% Inhibition Concentration” value in test [1] was over 0.2 mg/mL.

With Catalase, the “50% Inhibition Concentration” value in test [1] is recorded as >4,000 U/ml.
